System: prolactin
Test: Serum prolactin levels in rats, reserpinized and non-reserpinized
Format: in vivo, rats of the Sprague-Dawley strain
Conditions: for Prolactin Levels Non-Reserpinized 1 / Prolactin Levels Non-Reserpinized 2: rats not pretreated with reserpine, compound 1 mg./kg.; for Prolactin Levels Non-Reserpinized 1: run 1; for Prolactin Levels Non-Reserpinized 2: run 2; for Prolactin Levels Reserpinize: reserpine 2.0 mg. i.p. 18 hours before, compound 1 mg./kg. intraperitoneally, serum one hour after treatment
Protocol: Adult male rats of the Sprague-Dawley strain weighing about 200 g. were housed in an air-conditioned room with controlled lighting (lights on 6 a.m. - 8 p.m.) and fed lab chow and water ad libitum. Each rat received an intraperitoneal.injection of 2.0 mg. of reserpine in aqueous suspension 18 hours before administration of the compound of formula I. The purpose of the reserpine was to keep prolactin levels uniformly elevated. The compounds under test were dissolved in water and were injected intraperitoneally at a 1 mg./kg. dose level. Each compound was administered to a group of 10 rats, and a control group of 10 intact males received an equivalent amount of solvent. One hour after treatment all rats were killed by decapitation, and 150 ul. aliquots of serum were assayed for prolactin.
In addition, prolactin levels were determined in two runs in which the rats were not pretreated with reserpin. The dose level of the drug was maintained at 1 mg./kg.

Row | Compound | Prolactin Levels Non-Reserpinized 1 | Prolactin Levels Non-Reserpinized 2 | Prolactin Levels Reserpinize
1 | CCCN1CCc2cc(O)c(O)c3c2C1Cc1c[nH]nc1-3 (racemic) [1,2-Dihydroxy-6-n-propyl-4,5,,6,6a,7,9-hexahydroindazolo[7,6,5-ij]isoquinoline] | 40.0±9.5 (P<.05) | 23.8±2.8 | 49.9±6.0 (P<.01)
2 | C=CCN1CCc2cc(OC)c(OC)c3c2C1Cc1c[nH]nc1-3 (racemic) [l,2-Dimethoxy-6-allyl-4,5,6,6a,7,9-hexahydroindazolo[7,6,5-ij]isoquinoline] | 7.3±1.6 |  | 26.7±2.7
3 | CN1CCc2cc(O)c(O)c3c2C1Cc1c[nH]nc1-3 (stereo not shown) [1,2-Dihydroxy-6-methyl-4,5,6,6a,7,9-hexahydroindazolo[7,6,5-ij]isoquinoline] | 45.2±5.4 (P<.001) | 21.6±3.9 | 36.4±4.9
4 | CCN1CCc2cc(OC)c(OC)c3c2C1Cc1c[nH]nc1-3 (stereo not shown) [1,2-Dimethoxy-6-ethyl-4,5,6,6a,7,9-hexahydroindazolo[7,6,5-ij]isoquinoline] | 4.6±0.6 |  | 30.5±4.9
5 | COc1cc2c3c(c1OC)-c1n[nH]cc1CC3N(C)CC2 (stereo not shown) [1,2-Dimethoxy-6-methyl-4,5,6,6a,7,9-hexahydroindazolo[7,6,5-ij]isoquinoline] | 36.6±6.6 (P<.02) | 9.0±3.2 | 41.6±7.7
6 | CN1CCc2cccc3c2C1Cc1c[nH]nc1-3 (stereo not shown) [6-Methyl-4,5,6,6a,7,9-hexahydroindazolo-[7,6,5-ij]isoquinoline] | 19.7±3.1 | 11.8±2.7 | 39.3±7.3
7 | CCCN1CCc2cccc3c2C1Cc1c[nH]nc1-3 (stereo not shown) [6-n-Propyl-4,5,6,6a,7,9-hexahydroindazolo[7,6,5-ij]isoquinoline] | 9.5±1.7 | 7.8±2.6 | 22.6±3.8
